Assay results reported in the NIST ThermoML archive (doi:10.1021/acs.jced.8b00132).
Values joined by “and” are separate entries in the source; they are usually repeats but may differ in a detail not shown here. Equal values may be shown once. Numbers after ± are expanded uncertainties.

Settings: transient hot wire

O=C(C(F)(F)C(F)(F)F)C(F)(C(F)(F)F)C(F)(F)F [dodecafluoro-2-methylpentan-3-one]
thermal conductivity (302.17 K, 68802 kPa, Liquid): 0.07801 ± 0.0016 W/m/K
thermal conductivity (302.17 K, 68805 kPa, Liquid): 0.07819 ± 0.0016 W/m/K
thermal conductivity (302.18 K, 185 kPa, Liquid): 0.05684 ± 0.0012 W/m/K
thermal conductivity (302.19 K, 184 kPa, Liquid): 0.05683 ± 0.0012 W/m/K
thermal conductivity (302.19 K, 38646 kPa, Liquid): 0.07042 ± 0.0014 W/m/K
thermal conductivity (302.19 K, 38653 kPa, Liquid): 0.07047 ± 0.0014 W/m/K
thermal conductivity (302.2 K, 4505 kPa, Liquid): 0.05895 ± 0.0012 W/m/K
thermal conductivity (302.2 K, 4509 kPa, Liquid): 0.05896 ± 0.0012 W/m/K
thermal conductivity (302.2 K, 22376 kPa, Liquid): 0.06575 ± 0.0014 W/m/K
thermal conductivity (302.2 K, 22378 kPa, Liquid): 0.06574 ± 0.0014 W/m/K
thermal conductivity (302.21 K, 181 kPa, Liquid): 0.05683 ± 0.0012 W/m/K and 0.05685 ± 0.0012 W/m/K
thermal conductivity (302.21 K, 9730 kPa, Liquid): 0.06078 ± 0.0013 W/m/K
thermal conductivity (302.21 K, 9731 kPa, Liquid): 0.06057 ± 0.0013 W/m/K
thermal conductivity (302.22 K, 29975 kPa, Liquid): 0.06769 ± 0.0014 W/m/K and 0.06766 ± 0.0014 W/m/K
thermal conductivity (302.23 K, 38 kPa, Gas): 0.01171 ± 0.001 W/m/K
thermal conductivity (302.24 K, 34 kPa, Gas): 0.01182 ± 0.0014 W/m/K
thermal conductivity (302.24 K, 36 kPa, Gas): 0.01189 ± 0.00074 W/m/K
thermal conductivity (302.25 K, 34 kPa, Gas): 0.01189 ± 0.0014 W/m/K
thermal conductivity (302.26 K, 4429 kPa, Liquid): 0.05855 ± 0.0012 W/m/K
thermal conductivity (302.26 K, 4432 kPa, Liquid): 0.05857 ± 0.0012 W/m/K
thermal conductivity (302.26 K, 15648 kPa, Liquid): 0.06339 ± 0.0013 W/m/K
thermal conductivity (302.26 K, 22430 kPa, Liquid): 0.06528 ± 0.0014 W/m/K
thermal conductivity (302.27 K, 15647 kPa, Liquid): 0.06339 ± 0.0013 W/m/K
thermal conductivity (302.27 K, 22437 kPa, Liquid): 0.06518 ± 0.0013 W/m/K
thermal conductivity (302.29 K, 121 kPa, Liquid): 0.05692 ± 0.0012 W/m/K
thermal conductivity (302.3 K, 121 kPa, Liquid): 0.057 ± 0.0012 W/m/K
thermal conductivity (302.31 K, 92 kPa, Liquid): 0.05649 ± 0.0012 W/m/K
thermal conductivity (302.31 K, 97 kPa, Liquid): 0.05641 ± 0.0012 W/m/K
thermal conductivity (302.35 K, 9934 kPa, Liquid): 0.0612 ± 0.0013 W/m/K
thermal conductivity (302.35 K, 9940 kPa, Liquid): 0.06118 ± 0.0013 W/m/K
thermal conductivity (302.46 K, 4504 kPa, Liquid): 0.05889 ± 0.0012 W/m/K
thermal conductivity (302.47 K, 4505 kPa, Liquid): 0.05889 ± 0.0012 W/m/K
thermal conductivity (302.48 K, 184 kPa, Liquid): 0.05681 ± 0.0012 W/m/K
thermal conductivity (302.49 K, 184 kPa, Liquid): 0.05679 ± 0.0012 W/m/K
thermal conductivity (302.5 K, 181 kPa, Liquid): 0.05679 ± 0.0012 W/m/K and 0.05678 ± 0.0012 W/m/K
thermal conductivity (302.52 K, 15868 kPa, Liquid): 0.06291 ± 0.0013 W/m/K
thermal conductivity (302.53 K, 15872 kPa, Liquid): 0.06281 ± 0.0013 W/m/K
thermal conductivity (302.54 K, 68548 kPa, Liquid): 0.07804 ± 0.0016 W/m/K
thermal conductivity (302.54 K, 68549 kPa, Liquid): 0.07799 ± 0.0016 W/m/K
thermal conductivity (302.57 K, 121 kPa, Liquid): 0.05687 ± 0.0012 W/m/K and 0.05695 ± 0.0012 W/m/K
thermal conductivity (302.58 K, 58446 kPa, Liquid): 0.0756 ± 0.0015 W/m/K
thermal conductivity (302.59 K, 58445 kPa, Liquid): 0.07563 ± 0.0015 W/m/K
thermal conductivity (302.6 K, 34 kPa, Gas): 0.01198 ± 0.0011 W/m/K
thermal conductivity (302.61 K, 36 kPa, Gas): 0.01183 ± 0.0016 W/m/K
thermal conductivity (302.61 K, 38 kPa, Gas): 0.01193 ± 0.00074 W/m/K
thermal conductivity (302.61 K, 68790 kPa, Liquid): 0.07804 ± 0.0016 W/m/K
thermal conductivity (302.61 K, 68801 kPa, Liquid): 0.07795 ± 0.0016 W/m/K
thermal conductivity (302.63 K, 48154 kPa, Liquid): 0.07294 ± 0.0015 W/m/K
thermal conductivity (302.63 K, 48162 kPa, Liquid): 0.07285 ± 0.0015 W/m/K
thermal conductivity (302.65 K, 15984 kPa, Liquid): 0.06295 ± 0.0013 W/m/K
thermal conductivity (302.65 K, 15986 kPa, Liquid): 0.06304 ± 0.0013 W/m/K
thermal conductivity (302.68 K, 38648 kPa, Liquid): 0.07035 ± 0.0014 W/m/K
thermal conductivity (302.69 K, 38638 kPa, Liquid): 0.07035 ± 0.0014 W/m/K
thermal conductivity (302.72 K, 9724 kPa, Liquid): 0.06082 ± 0.0013 W/m/K
thermal conductivity (302.72 K, 9726 kPa, Liquid): 0.06095 ± 0.0013 W/m/K
thermal conductivity (302.73 K, 29973 kPa, Liquid): 0.06771 ± 0.0014 W/m/K
thermal conductivity (302.74 K, 29982 kPa, Liquid): 0.06772 ± 0.0014 W/m/K
thermal conductivity (302.78 K, 4430 kPa, Liquid): 0.0586 ± 0.0012 W/m/K
thermal conductivity (302.79 K, 4428 kPa, Liquid): 0.05856 ± 0.0012 W/m/K
thermal conductivity (302.79 K, 22448 kPa, Liquid): 0.06525 ± 0.0014 W/m/K
thermal conductivity (302.8 K, 22443 kPa, Liquid): 0.06527 ± 0.0014 W/m/K
thermal conductivity (302.85 K, 95 kPa, Liquid): 0.05658 ± 0.0012 W/m/K
thermal conductivity (302.86 K, 96 kPa, Liquid): 0.05645 ± 0.0012 W/m/K
thermal conductivity (303.01 K, 36 kPa, Gas): 0.01199 ± 0.00081 W/m/K
thermal conductivity (303.02 K, 38 kPa, Gas): 0.01194 ± 0.00085 W/m/K
thermal conductivity (303.03 K, 35 kPa, Gas): 0.01196 ± 0.00078 W/m/K
thermal conductivity (303.04 K, 68537 kPa, Liquid): 0.07796 ± 0.0016 W/m/K
thermal conductivity (303.04 K, 68564 kPa, Liquid): 0.07806 ± 0.0016 W/m/K
thermal conductivity (303.07 K, 15868 kPa, Liquid): 0.06292 ± 0.0013 W/m/K
thermal conductivity (303.07 K, 15869 kPa, Liquid): 0.06282 ± 0.0013 W/m/K
thermal conductivity (303.1 K, 58422 kPa, Liquid): 0.07541 ± 0.0015 W/m/K
thermal conductivity (303.1 K, 58439 kPa, Liquid): 0.07546 ± 0.0015 W/m/K
thermal conductivity (303.11 K, 68765 kPa, Liquid): 0.07805 ± 0.0016 W/m/K
thermal conductivity (303.11 K, 68772 kPa, Liquid): 0.07794 ± 0.0016 W/m/K
thermal conductivity (303.16 K, 48157 kPa, Liquid): 0.07292 ± 0.0015 W/m/K
thermal conductivity (303.17 K, 48152 kPa, Liquid): 0.07285 ± 0.0015 W/m/K
thermal conductivity (303.2 K, 15974 kPa, Liquid): 0.06276 ± 0.0013 W/m/K
thermal conductivity (303.2 K, 15979 kPa, Liquid): 0.06281 ± 0.0013 W/m/K
thermal conductivity (303.22 K, 38643 kPa, Liquid): 0.07047 ± 0.0014 W/m/K
thermal conductivity (303.23 K, 38644 kPa, Liquid): 0.0705 ± 0.0014 W/m/K
thermal conductivity (303.29 K, 9716 kPa, Liquid): 0.06072 ± 0.0013 W/m/K
thermal conductivity (303.29 K, 9741 kPa, Liquid): 0.06069 ± 0.0013 W/m/K
thermal conductivity (303.3 K, 29978 kPa, Liquid): 0.06778 ± 0.0014 W/m/K
thermal conductivity (303.3 K, 29993 kPa, Liquid): 0.06773 ± 0.0014 W/m/K
